The test deals with Nav1.7 sodium channels (human SCN9A gene) (Homo sapiens (Human), UniProt Q15858). Nature of the test: Automated patch clamp (IonWorks Barracuda) of Nav1.7 stably expressed in CHO cells. In kind it is cell-based. The protocol: The potencies of the compounds provided herein to block specific Na+ channels was measured using automated patch clamp electrophysiologically of Nav1.7 sodium channels (human SCN9A gene) stably expressed in CHO cells using the IonWorks™ Barracuda system. Currents were measured from the whole cell patch configuration. From a holding potential of −90 mV, membranes were subjected to a 200 ms pre-pulse to −120 mV, then pulsed to 0 mV to measure blockade of the tonic (resting) state. Inactivated state block was elicited by repolarization to −100 mV (20 ms pulse duration), followed by depolarization to 0 mV (20 ms pulse duration). Peak inward Na+ currents were measured in the presence of vehicle or various concentrations of the test compound to determine the percent block of current. Concentration-response relationships were used to calculate IC50 values for the illustrative compounds.
On the technique in general: Patch clamp records ionic current or voltage across a cell membrane.

Where [1] appears, read: inactivated state block, CHO cells, read-out: Inactivated state IC50.
The mark [2] stands for this setting: tonic (resting) state block, CHO cells, read-out: Tonic state IC50.
The mark [3] stands for this setting: read-out: Inactivated state IC50.

pIC50: −log10 of the molar value. “And” between values parts separate entries of the source, which are not always exact repeats. Equal entries are not always repeated. Structures can show the parent of a compound that is named as a salt. Where two headings read alike, the source gives them in different places.

Usually pIC50 stands for −log10 of the IC50, conventionally taken in molar units.

Sequence of Nav1.7 sodium channels (human SCN9A gene) (Q15858 whole entry): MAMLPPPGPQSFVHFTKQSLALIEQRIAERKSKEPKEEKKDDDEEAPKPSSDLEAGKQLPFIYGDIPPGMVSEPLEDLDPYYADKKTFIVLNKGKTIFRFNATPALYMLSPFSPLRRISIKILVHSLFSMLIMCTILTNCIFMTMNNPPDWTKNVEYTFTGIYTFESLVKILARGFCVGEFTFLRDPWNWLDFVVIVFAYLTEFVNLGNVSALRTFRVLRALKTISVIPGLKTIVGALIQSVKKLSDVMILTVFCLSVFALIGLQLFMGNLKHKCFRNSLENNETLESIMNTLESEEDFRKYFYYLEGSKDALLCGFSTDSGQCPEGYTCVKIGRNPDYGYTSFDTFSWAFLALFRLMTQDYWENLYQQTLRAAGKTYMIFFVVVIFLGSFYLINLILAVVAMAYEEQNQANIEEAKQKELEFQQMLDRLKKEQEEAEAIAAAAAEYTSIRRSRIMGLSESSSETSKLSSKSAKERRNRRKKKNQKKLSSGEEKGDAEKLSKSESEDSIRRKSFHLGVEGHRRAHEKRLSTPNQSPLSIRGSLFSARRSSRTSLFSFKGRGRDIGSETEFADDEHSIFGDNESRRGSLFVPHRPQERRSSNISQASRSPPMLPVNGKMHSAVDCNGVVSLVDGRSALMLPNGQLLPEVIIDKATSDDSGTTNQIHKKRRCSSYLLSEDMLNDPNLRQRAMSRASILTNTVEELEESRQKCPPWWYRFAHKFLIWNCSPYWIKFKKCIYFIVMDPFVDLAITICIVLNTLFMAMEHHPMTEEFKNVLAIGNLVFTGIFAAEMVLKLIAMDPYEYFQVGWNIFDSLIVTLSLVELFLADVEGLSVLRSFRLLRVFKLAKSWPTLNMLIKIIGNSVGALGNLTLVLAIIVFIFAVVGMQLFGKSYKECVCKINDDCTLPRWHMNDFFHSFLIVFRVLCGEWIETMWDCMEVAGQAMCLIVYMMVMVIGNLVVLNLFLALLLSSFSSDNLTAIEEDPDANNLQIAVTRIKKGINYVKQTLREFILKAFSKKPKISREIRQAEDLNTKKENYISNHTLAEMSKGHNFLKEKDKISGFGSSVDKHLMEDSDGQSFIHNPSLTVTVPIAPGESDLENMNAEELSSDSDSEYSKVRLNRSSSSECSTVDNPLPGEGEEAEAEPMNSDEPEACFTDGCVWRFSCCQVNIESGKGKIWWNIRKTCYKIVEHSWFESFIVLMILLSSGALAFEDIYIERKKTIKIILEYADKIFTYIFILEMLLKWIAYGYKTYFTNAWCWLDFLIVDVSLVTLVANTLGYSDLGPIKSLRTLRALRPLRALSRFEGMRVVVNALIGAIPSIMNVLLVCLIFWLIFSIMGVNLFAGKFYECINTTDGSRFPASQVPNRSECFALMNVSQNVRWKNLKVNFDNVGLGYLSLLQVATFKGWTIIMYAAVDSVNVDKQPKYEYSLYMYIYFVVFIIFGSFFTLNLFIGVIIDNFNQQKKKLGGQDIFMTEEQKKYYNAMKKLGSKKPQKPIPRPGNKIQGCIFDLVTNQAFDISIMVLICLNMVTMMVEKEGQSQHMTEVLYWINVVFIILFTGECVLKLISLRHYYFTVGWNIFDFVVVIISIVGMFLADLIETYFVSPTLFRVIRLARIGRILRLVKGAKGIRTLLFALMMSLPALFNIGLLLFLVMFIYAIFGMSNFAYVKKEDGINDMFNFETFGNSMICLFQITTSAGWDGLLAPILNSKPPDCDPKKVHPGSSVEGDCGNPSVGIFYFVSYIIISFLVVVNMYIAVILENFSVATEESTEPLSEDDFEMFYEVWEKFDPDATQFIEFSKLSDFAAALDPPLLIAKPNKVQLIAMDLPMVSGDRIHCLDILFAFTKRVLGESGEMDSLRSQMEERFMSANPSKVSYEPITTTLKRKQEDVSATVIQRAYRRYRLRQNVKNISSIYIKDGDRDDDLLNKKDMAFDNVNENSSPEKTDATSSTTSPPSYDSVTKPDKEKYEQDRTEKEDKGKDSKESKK

Take `Nc1nc(NC(CO)CO)nnc1-c1cccc(Cl)c1Cl` [Compound 20, 2-((5-Amino-6-(2,3-dichlorophenyl)-1,2,4-triazin-3-yl)amino)propane-1,3-diol]: the pIC50 is less than 3.52 under setting [1] and less than 3.70 under setting [2].
Consider `Nc1nc(N2CCN(C[C@H](O)COCC3CCC3)CC2)nnc1-c1cccc(Cl)c1Cl` [Compound 80, (2S)-1-{4-[5-Amino-6-(2,3-dichlorophenyl)-1,2,4-triazin-3-yl]piperazin-1-yl}-3-(cyclobutylmethoxy)propan-2-ol], for which the pIC50 reads like this: under setting [1], greater than 4.30; under setting [2], 4.15.
As for `Nc1nc(N2CCN(C[C@H](O)COCC3CC3)CC2)nnc1-c1cccc(Cl)c1Cl` [Compound 83, (2S)-1-{4-[5-Amino-6-(2,3-dichlorophenyl)-1,2,4-triazin-3-yl]piperazin-1-yl}-3-(cyclopropylmethoxy)propan-2-ol], the negative-log IC50 (pIC50) reads like this: under setting [1], greater than 4.30; under setting [2], 3.77.
Consider `Nc1nc(N2CCN(C[C@H](O)COC3CCC3)CC2)nnc1-c1cccc(Cl)c1Cl` [Compound 84, (2S)-1-{4-[5-Amino-6-(2,3-dichlorophenyl)-1,2,4-triazin-3-yl]piperazin-1-yl}-3-(cyclobutyloxy)propan-2-ol], for which the pIC50 runs as follows: under setting [1], greater than 4.30; under setting [2], 3.72.
Consider `Nc1nc(N2CCN(CC(F)(F)F)CC2)nnc1-c1cccc(Cl)c1Cl` [Compound 87, 6-(2,3-dichlorophenyl)-3-(4-(2,2,2-trifluoroethyl)piperazin-1-yl)-1,2,4-triazin-5-amine], for which the negative-log IC50 (pIC50) is, setting by setting: under setting [1], greater than 4.30; under setting [2], less than 3.70.
Regarding `Nc1nc(N2CCN(CCOC(F)(F)F)CC2)nnc1-c1cccc(Cl)c1Cl` [Compound 88, 6-(2,3-dichlorophenyl)-3-(4-(2-(trifluoromethoxy)ethyl)piperazin-1-yl)-1,2,4-triazin-5-amine], the pIC50 is greater than 4.30 under setting [1] and 3.95 under setting [2].
Take `CC(CS(=O)(=O)CCO)Nc1nnc(-c2cccc(Cl)c2Cl)c(N)n1` (centres unmarked) [Compound 93, 2-((2-((5-amino-6-(2,3-dichlorophenyl)-1,2,4-triazin-3-yl)amino)propyl)sulfonyl)ethanol]: the pIC50 is less than 3.52 under setting [1] and less than 3.70 under setting [2].
Regarding `COCCOCCOCCN1CCN(c2nnc(-c3cc(F)cc(Cl)c3Cl)c(N)n2)CC1` [Compound 104, 3-N-(4′-N-mPEG3-piperazinyl) 5-fluoro lamotrigine], the negative-log IC50 (pIC50) under setting [1] is greater than 4.30 and the negative-log IC50 (pIC50) under setting [2] is less than 3.70.
Take `COCCOCCOCC(=O)N1CCN(c2nnc(-c3cccc(Cl)c3Cl)c(N)n2)CC1` [Compound 105, 3-N-mPEG2-CM-piperazinyl lamotrigine]: the pIC50 under setting [1] was less than 3.52 and the pIC50 under setting [2] was less than 3.70.
Take `COCCOCCOCC(=O)N1CCC(Nc2nnc(-c3cccc(Cl)c3Cl)c(N)n2)CC1` [Compound 107, 3-N-(4′-N-mPEG2-CM piperidinyl) lamotrigine]: the pIC50 by setting is: under setting [1], less than 3.52; under setting [2], less than 3.70.
The matching figures for `COCCOCCOCCN1CCC(Nc2nnc(-c3cccc(Cl)c3Cl)c(N)n2)CC1` [Compound 108, 3-N-(1-N-mPEG3-piperidin-4-yl) lamotrigine]: 3.73 and less than 3.70.
As for `COCCOCCOCCN1C(C)CN(c2nnc(-c3cccc(Cl)c3Cl)c(N)n2)CC1C` (centres unmarked) [Compound 111, 3-N-(4-N-mPEG3-3,5-dimethylpiperazinyl) lamotrigine], the pIC50 runs as follows: under setting [1], greater than 4.30; under setting [2], less than 3.70.
Take `Nc1nc(N2CCN[C@@H](CO)C2)nnc1-c1cccc(Cl)c1Cl` [Compound 122, (R)-5-amino-3-N-[3-(hydroxymethyl)piperazin-1-yl] lamotrigine diHCl]: the negative-log IC50 (pIC50) reads like this: under setting [1], less than 3.82; under setting [2], less than 3.82.
Regarding `Nc1nc(N2CCN3CCOC[C@@H]3C2)nnc1-c1cccc(Cl)c1Cl` [Compound 131, (S)-6-(2,3-dichlorophenyl)-3-(hexahydropyrazino[2,1-c][1,4]oxazin-8(1H)-yl)-1,2,4-triazin-5-amine di HCl salt], the pIC50 was 3.73 under setting [3] and less than 3.70 (read-out: Tonic state IC50).
In the case of `Nc1nc(NC2CNC2)nnc1-c1cccc(Cl)c1Cl` [Compound 132, 3-N-(azetidin-3-yl) lamatrogine 2HCl salt], the pIC50 by setting is: under setting [1], less than 3.52; under setting [2], less than 3.70.
For the compound `COC[C@@H](O)CN1CCN(c2nnc(-c3cccc(Cl)c3Cl)c(N)n2)C[C@H]1CO` [Compound 134, (S)-1-((S)-4-(5-amino-6-(2,3-dichlorophenyl)-1,2,4-triazin-3-yl)-2-(hydroxymethyl)piperazin-1-yl)-3-methoxypropan-2-ol], the negative-log IC50 (pIC50) runs as follows: under setting [1], < 3.52 and 3.65; under setting [2], less than 3.70.
On to `Nc1nc(N2CCNC[C@H]2CO)nnc1-c1cccc(Cl)c1Cl` [Compound 135], for which the pIC50 runs as follows: under setting [1], less than 3.52; under setting [2], less than 3.70.
As to `CC(C)(C)OCC(O)CN1CCN(c2nnc(-c3cccc(Cl)c3Cl)c(N)n2)C[C@H]1CO` (stereo partly drawn) [Compound 136, 1-((S)-4-(5-amino-6-(2,3-dichlorophenyl)-1,2,4-triazin-3-yl)-2-(hydroxymethyl)piperazin-1-yl)-3-(tert-butoxy)propan-2-ol], the negative-log IC50 (pIC50) runs as follows: under setting [1], 4.06 and 4.03; under setting [2], less than 3.70.
With `COC[C@@H](O)CN1CCN(c2nnc(-c3cccc(Cl)c3Cl)c(N)n2)[C@H](CO)C1` [Compound 138, (S)-1-((S)-4-(5-amino-6-(2,3-dichlorophenyl)-1,2,4-triazin-3-yl)-3-(hydroxymethyl)piperazin-1-yl)-3-methoxypropan-2-ol], the negative logarithm of the IC50 (pIC50) runs as follows: under setting [1], less than 3.52; under setting [2], less than 3.70.
As for `CC(C)(C)OCC(O)CN1CCN(c2nnc(-c3cccc(Cl)c3Cl)c(N)n2)[C@H](CO)C1` (stereo partly drawn) [Compound 139, 1-((S)-4-(5-amino-6-(2,3-dichlorophenyl)-1,2,4-triazin-3-yl)-3-(hydroxymethyl)piperazin-1-yl)-3-(tert-butoxy)propan-2-ol], the pIC50 under setting [1] was 3.99 and the pIC50 under setting [2] was less than 3.70.
On to `Nc1nc(N2CCN(CC(O)CO)C[C@H]2CO)nnc1-c1cccc(Cl)c1Cl` (stereo partly drawn) [Compound 140, 3-((S)-4-(5-amino-6-(2,3-dichlorophenyl)-1,2,4-triazin-3-yl)-3-(hydroxymethyl)piperazin-1-yl)propane-1,2-diol], for which the pIC50 under setting [3] is less than 3.52 and the pIC50 (read-out: Tonic state IC50) was less than 3.70.
As to `Nc1nc(N2CCNCC23CC3)nnc1-c1cccc(Cl)c1Cl` [Compound 141, 6-(2,3-dichlorophenyl)-3-(4,7-diazaspiro[2.5]octan-4-yl)-1,2,4-triazin-5-amine], the pIC50 by setting is: under setting [1], 3.83; under setting [2], less than 3.70.
As to `CN(CCNC[C@H](O)C(F)(F)F)c1nnc(-c2cccc(Cl)c2Cl)c(N)n1` [Compound 147, (S)-3-((2-((5-amino-6-(2,3-dichlorophenyl)-1,2,4-triazin-3-yl)(methyl)amino)ethyl)amino)-1,1,1-trifluoropropan-2-ol], the pIC50 by setting is: under setting [1], greater than 4.30; under setting [2], 3.82 and 3.75.
`CN(CCNc1nnc(-c2cccc(Cl)c2Cl)c(N)n1)C[C@H](O)C(F)(F)F` [Compound 148, (S)-3-((2-((5-amino-6-(2,3-dichlorophenyl)-1,2,4-triazin-3-yl)amino)ethyl)(methyl)amino)-1,1,1-trifluoropropan-2-ol]: the pIC50 runs as follows: under setting [1], greater than 4.30; under setting [2], 3.83.
On to `COCCOCCOCC(O)CNc1nnc(-c2cccc(Cl)c2Cl)c(N)n1` (centres unmarked) [Compound 153, 1-((5-Amino-6-(2,3-dichlorophenyl)-1,2,4-triazin-3-yl)amino)-3-(2-(2-methoxyethoxy)ethoxy)propan-2-ol], for which the pIC50 runs as follows: under setting [1], less than 3.52; under setting [2], less than 3.70.
With `COC[C@@H](O)CN[C@@H]1CCN(c2nnc(-c3cccc(Cl)c3Cl)c(N)n2)C1` [Compound 159, (S)-1-(((R)-1-(5-amino-6-(2,3-dichlorophenyl)-1,2,4-triazin-3-yl)pyrrolidin-3-yl)amino)-3-methoxypropan-2-ol], the negative logarithm of the IC50 (pIC50) runs as follows: under setting [1], 3.54; under setting [2], less than 3.70.
In the case of `COC[C@@H](O)CN(C)CC1CN(c2nnc(-c3cccc(Cl)c3Cl)c(N)n2)C1` [Compound 160, (S)-1-(((1-(5-amino-6-(2,3-dichlorophenyl)-1,2,4-triazin-3-yl)azetidin-3-yl)methyl)(methyl)amino)-3-methoxypropan-2-ol], the pIC50 by setting is: under setting [1], 3.53; under setting [2], less than 3.70.
`COC[C@@H](O)CN1CCC12CCCN(c1nnc(-c3cccc(Cl)c3Cl)c(N)n1)C2` (stereo partly drawn) [Compound 161, (2S)-1-(6-(5-amino-6-(2,3-dichlorophenyl)-1,2,4-triazin-3-yl)-1,6-diazaspiro[3.5]nonan-1-yl)-3-methoxypropan-2-ol]: the pIC50 runs as follows: under setting [1], 4.29; under setting [2], 3.83.
Taken in the same sequence, the figures for `COC[C@@H](O)CNC1(C)CCN(c2nnc(-c3cccc(Cl)c3Cl)c(N)n2)C1` (stereo partly drawn) [Compound 162, (2S)-1-((1-(5-amino-6-(2,3-dichlorophenyl)-1,2,4-triazin-3-yl)-3-methylpyrrolidin-3-yl)amino)-3-methoxypropan-2-ol] were 3.71 and less than 3.70.
On to `COC[C@@H](O)CNC1CN(c2nnc(-c3cccc(Cl)c3Cl)c(N)n2)C1` [Compound 163, (S)-1-((1-(5-amino-6-(2,3-dichlorophenyl)-1,2,4-triazin-3-yl)azetidin-3-yl)amino)-3-methoxypropan-2-ol], for which the negative-log IC50 (pIC50) by setting is: under setting [1], less than 3.52; under setting [2], less than 3.70.
The matching figures for `CN1CCN(CCOCCNc2nnc(-c3cccc(Cl)c3Cl)c(N)n2)CC1` [Compound 169, 6-(2,3-dichlorophenyl)-N3-(2-(2-(4-methylpiperazin-1-yl)ethoxy)ethyl)-1,2,4-triazine-3,5-diamine]: less than 3.52 and less than 3.70.

Source of the values: patent US10189859B2, “Derivatives of 6-(2,3-dichlorophenyl)-1,2,4-triazin-5-amine” (Nektar Therapeutics, priority 2013, dated 2019).
